Test results published in the supplement of paper PMC5412046.
Structures can show the parent of a compound that is named as a salt.

What was measured:
[1] = system: SB.mhdgc-1; assay: viability at highest tested concentration (MAXR) relative to DMSO; higher = less cytotoxic; conditions: SB.mhdgc-1 (hereditary c.1380delA CDH1 gastric cancer)
Summary of the method: (§1)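 After 48 h of compound exposure, viability of hereditary or sporadic patient-derived gastric cancer cells was measured by CellTiter-Glo luminescence. Compounds were added in DMSO at 11 threefold-diluted concentrations to 500 cells per 1536 well. Results are viability normalised to DMSO, either at the highest concentration or as trapezoidal area under the curve.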

[2] = system: SB.msgc-1; assay: as above; conditions: SB.msgc-1 (sporadic gastric cancer)
Summary of the method: as §1

[3] = system: SB.mhdgc-1; assay: area under the dose-response curve of % viability (trapezoidal, 11 doses) (% viability x log10 concentration); higher = less cytotoxic; conditions: SB.mhdgc-1 (hereditary c.1380delA CDH1 gastric cancer)
Summary of the method: as §1

[4] = system: SB.msgc-1; assay: as above; conditions: SB.msgc-1 (sporadic gastric cancer)
Summary of the method: as §1

Compound | viability [1] | viability [2] | area under the dose-response curve [3] | area under the dose-response curve [4]
Nc1cc(N2CCCCC2)nc(N)[n+]1[O-] [Minoxidil] (top concentration 46.0829 µM) | 71.2% | 94.7% | 507 | 579
CN1CCN2c3ncccc3Cc3ccccc3C2C1 (stereo not given) [Mirtazapine] (top concentration 46.0829 µM) | 150% | 99.7% | 548 | 545
O=C([O-])[C@H](CC(=O)N1C[C@H]2CCCC[C@H]2C1)Cc1ccccc1 [Mitiglinide calcium hydrate] (top concentration 46.0829 µM) | 114% | 109% | 547 | 549
CO[C@@]12[C@H](COC(N)=O)C/3=C(N1C[C@@H]4N[C@H]24)/C(=O)/C(=C(N)\C3=O)C [Mitomycin] (top concentration 46.0829 µM) | 12.4% | 42.1% | 199 | 362
Clc1ccc(C(c2ccccc2Cl)C(Cl)Cl)cc1 (stereo not given) [Mitotane] (top concentration 46.0829 µM) | 51% | 59.8% | 478 | 497
O=C1c2c(O)ccc(O)c2C(=O)c2c(NCCNCCO)ccc(NCCNCCO)c21 [Mitoxantrone] (top concentration 46.0829 µM) | 2.34% | 20.4% | 263 | 402
CN(c1nccc(=O)[nH]1)C1CCN(c2nc3ccccc3n2Cc2ccc(F)cc2)CC1 [Mizolastine] (top concentration 46.0829 µM) | 64.6% | 31.2% | 519 | 467
NC(=O)c1ncn([C@@H]2O[C@H](CO)[C@@H](O)[C@H]2O)c1O [Mizoribine] (top concentration 46.0829 µM) | 110% | 114% | 599 | 559
Nc1ccccc1NC(=O)c1ccc(CNc2nccc(-c3cccnc3)n2)cc1 [Mocetinostat] (top concentration 46.0829 µM) | 69% | 16.8% | 447 | 355
C[C@@H]1C[C@H]2[C@@H]3CC\C4=C\C(=O)\C=C/[C@]4(C)[C@@]3(Cl)[C@@H](O)C[C@]2(C)[C@@]1(OC(=O)C5=CC=CO5)C(=O)CCl [Mometasone furoate] (top concentration 46.0829 µM) | 4.2% | 20.5% | 398 | 501
CCOC(=O)C/1=C(C)/NC(=S)NC1C2=CC=CC(=C2)O (stereo not given) [Monastrol] (top concentration 46.0829 µM) | 86.2% | 48.5% | 398 | 347
O=C(CCCN1CCN(c2ccc(F)cc2)CC1)NC1c2ccccc2CSc2ccccc21 (stereo not given) [Monatepil] (top concentration 46.0829 µM) | 68.5% | 49.1% | 597 | 486
CC[C@@]1([C@@H]2O[C@@H]([C@H]3O[C@@](O)(CO)[C@H](C)C[C@@H]3C)C[C@@H]2C)CC[C@H]([C@]2(C)CC[C@]3(C[C@H](O)[C@@H](C)[C@@H]([C@@H](C)[C@@H](OC)[C@H](C)C(=O)[O-])O3)O2)O1 [Monensin sodium salt] (top concentration 23.0415 µM) | 26.8% | 20.7% | 304 | 346
Oc1ccc(OCc2ccccc2)cc1 [Monobenzone] (top concentration 46.0829 µM) | 83.9% | 96.2% | 588 | 568
OC1=CC(=C(C=C1)\C2=C(O)\C(=O)C3=C(O2)C=C(O)C=C3O)O [Morin hydrate] (top concentration 46.0829 µM) | 132% | 105% | 530 | 516
N=C(N)NC(=N)N1CCOCC1 [Moroxydine] (top concentration 46.0829 µM) | 52.5% | 44.6% | 506 | 479
CCOc1cc(N)c(Cl)cc1C(=O)NCC1CN(Cc2ccc(F)cc2)CCO1 (stereo not given) [Mosapride citrate] (top concentration 46.0829 µM) | 147% | 89.2% | 572 | 514
CC1(C)CNc2cc(NC(=O)c3cccnc3NCc3ccncc3)ccc21 [Motesanib] (top concentration 46.0829 µM) | 49.8% | 68.8% | 394 | 463
COc1c(N2C[C@@H]3CCCN[C@@H]3C2)c(F)cc2c(=O)c(C(=O)O)cn(C3CC3)c12.Cl.O [Moxifloxacin hydrochloride] (top concentration 46.0829 µM) | 92.9% | 67.6% | 560 | 507
COC1=NC(=NC(=C1N\C2=N\CCN2)Cl)C [Moxonidine hydrochloride hydrate] (top concentration 46.0829 µM) | 77.7% | 122% | 430 | 489
FC(F)(F)c1ccc(/C=C/c2nc(COc3ccc(CCCCn4ccnn4)cc3)co2)cc1 [Mubritinib] (top concentration 46.0829 µM) | 48.8% | 28.4% | 368 | 241
COc1c(C)c2c(c(O)c1C/C=C(\C)CCC(=O)OCCN1CCOCC1)C(=O)OC2 [Mycophenolate mofetil] (top concentration 46.0829 µM) | 88.3% | 55.1% | 571 | 510
COc1c(C)c2c(c(O)c1C/C=C(\C)CCC(=O)O)C(=O)OC2 [Mycophenolic acid] (top concentration 46.0829 µM) | 66% | 73.8% | 502 | 519

Compound | viability [1] | viability [2] | area under the dose-response curve [3] | area under the dose-response curve [4]
OC1=CC2=C(C(=C1)O)C(=O)\C(=C(/O2)C3=CC(=C(O)C(=C3)O)O)O [Myricetin] (top concentration 46.0829 µM) | 108% | 100% | 510 | 484
COc1ccc(Nc2cc(-c3cnc(N)nc3)nc(N3CCOCC3)n2)cn1 [NIBR-17] (top concentration 46.0829 µM) | 37% | 37.7% | 378 | 421
c1ccc2c(CN3CCNCC3)cccc2c1 [NMP] (top concentration 46.0829 µM) | 7.38% | 89.5% | 520 | 491
COc1cccc([C@@H](C)NCCCc2ccccc2Cl)c1 [NPS R568] (top concentration 46.0829 µM) | 74.4% | 22% | 525 | 320
Nc1nc(N)c(N=O)c(OCC2CCCCC2)n1 [NU-6027] (top concentration 46.0829 µM) | 53.7% | 69.3% | 432 | 505
N[S+](=O)([O-])c1ccc(Nc2nc(OCC3CCCCC3)c3[nH]cnc3n2)cc1 [NU-6102] (top concentration 46.0829 µM) | 42.7% | 69.2% | 496 | 537
O=C1\C=C(OC2=C(C=CC=C12)C3=CC=CC4=C3SC5=C4C=CC=C5)\N6CCOCC6 [NU-7441] (top concentration 46.0829 µM) | 1.01% | 9.96% | 484 | 443
CNCC(O)C(O)C(O)C(O)CO.O=C(O)c1ccc(-c2cc3cccnc3c(-c3ccc4nonc4c3)n2)cc1 [NVP-ABE171] (top concentration 46.0829 µM) | 7.16% | 20.2% | 567 | 511
Nc1ncnc2c1c(-c1cccc(OCc3ccccc3)c1)cn2C1CC(CN2CCC2)C1 (stereo not given) [NVP-AEW541] (top concentration 46.0829 µM) | 44.9% | 55.9% | 482 | 484
CCNC(=O)c1noc(-c2cc(C(C)C)c(O)cc2O)c1-c1ccc(CN2CCOCC2)cc1 [NVP-AUY922] (top concentration 46.0829 µM) | 35% | 49.2% | 260 | 362
COc1ccc(-c2ccc3ncc4c(c3c2)n(-c2ccc(N3CCNCC3)c(C(F)(F)F)c2)c(=O)n4C)cn1 [NVP-BGT226] (top concentration 46.0829 µM) | 1.45% | 0.962% | 195 | 305
Cc1ccc(C(=O)Nc2cccc(C(F)(F)F)c2)cc1Nc1nc(-c2cccnc2)nc2c1cnn2C [NVP-BHG712] (top concentration 46.0829 µM) | 1.3% | 8.83% | 404 | 463
Fc1cc(-c2cccc3ncc(-c4cnn(C5CCNCC5)c4)nc23)cc(F)c1CN1CCOCC1 [NVP-BSK805] (top concentration 46.0829 µM) | 3.9% | 38.6% | 502 | 500
Cn1cc(-c2ccc3ncc(Cc4ccc5ncccc5c4)n3n2)cn1 [NVP-BVU-972] (top concentration 46.0829 µM) | 49.7% | 98.9% | 374 | 506
Cc1c(C(=O)Nc2ccc(N3C[C@@H](C)O[C@@H](C)C3)nc2)cccc1-c1ccc(OC(F)(F)F)cc1 [NVP-LDE-225] (top concentration 46.0829 µM) | 43.9% | 40.3% | 479 | 488
CNC(=O)c1ccccc1Nc1nc(Nc2ccc(N3CCOCC3)cc2OC)ncc1Cl [NVP-TAE226] (top concentration 46.0829 µM) | 21.2% | 39.1% | 392 | 448
Oc1nc(-c2ccc(C(F)(F)F)cc2)nc2c1CSCC2 [NVP-XAV-939] (top concentration 46.0829 µM) | 60.6% | 66.7% | 545 | 517
N=C(N)Nc1ccc(C(=O)Oc2ccc3cc(C(=N)N)ccc3c2)cc1 [Nafamostat mesilate] (top concentration 46.0829 µM) | 93.1% | 94.3% | 467 | 518
COc1ccccc1N1CCN(CC(O)COc2cccc3ccccc23)CC1 (stereo not given) [Naftopidil] (top concentration 46.0829 µM) | 87% | 102% | 536 | 572
CCN1\C=C(\C(O)=O)C(=O)C2=CC=C(C)N=C12 [Nalidixic acid] (top concentration 46.0829 µM) | 76.8% | 95.8% | 437 | 443
O=C1CC[C@@]2(O)[C@H]3Cc4ccc(O)c5c4[C@@]2(CCN3CC2CC2)[C@H]1O5 [Naltrexone hydrochloride] (top concentration 46.0829 µM) | 98.3% | 116% | 607 | 605
CO[C@H]1CCC(O[C@H]2C[C@H]([C@]3(C)CC[C@]4(C[C@H](O)[C@@H](C)[C@@H]([C@@H](C)/C=C(\C)C(=O)[C@H](C)C[C@H](C)C(=O)[O][Na])O4)O3)O[C@]3(O[C@@H]([C@H]4O[C@@](O)(CO)[C@H](C)C[C@@H]4C)C[C@@H]3C)[C@@H]2C)O[C@@H]1C (stereo not given in full) [Nanchangmycin] (top concentration 46.0829 µM) | 2.69% | 1.92% | 303 | 289
